Several values for one entry are separate records, joined by “and”; a condition that tells them apart may be missing. Equal values may be shown once. Read-outs that look alike come from different tables or passages of the source. Each block holds one compound with its values, some of them ahead of it.
Assays:
PC-3 = test: cells; conditions: Homo sapiens, PC-3, 48 h
SNB-19 = test: NCI-60 SRB screen; conditions: for GI50 / CC50 / TGI: SNB-19, 48 h; for CC50: read-out: LC50, SNB-19, 48 h
SK-MEL-28 = test: cells; conditions: Homo sapiens, SK-MEL-28, 48 h; for CC50: read-out: LC50, SK-MEL-28, 48 h
UACC-257 = conditions: for CC50: human, 48 h
LOX IMVI [1] = conditions: 48 h; for growth GP: 10 μM; for CC50: human
SW-620 = test: NCI-60 SRB screen; conditions: SW-620, 48 h
BT-549 = test: cells; conditions: Homo sapiens, BT-549, 48 h; for CC50: read-out: LC50, BT-549, 48 h
Leukemia = test: cells; conditions: Homo sapiens; for GI50: read-out: MG_MID GI50; for CC50: read-out: MG_MID LC50
SNB-75 = test: NCI-60 SRB screen; conditions: SNB-75, 48 h; for CC50: read-out: LC50, SNB-75, 48 h
RXF 393 = test: NCI-60 SRB screen
Ovarian cancer = test: cells; conditions: Homo sapiens; for GI50: read-out: MG_MID GI50; for CC50: read-out: MG_MID LC50
SF-268 = test: cells; conditions: Homo sapiens, SF-268, 48 h; for CC50: read-out: LC50, SF-268, 48 h
Breast cancer = test: cells; conditions: Homo sapiens; for GI50: read-out: MG_MID GI50; for CC50: read-out: MG_MID LC50
ACHN = test: NCI-60 SRB screen; conditions: 48 h; for CC50: read-out: LC50, ACHN, 48 h; for growth GP: 10 μM
AGS = test: MTT assay; type: cell-based; conditions: Homo sapiens, 24 h of treatment
In short: (§1)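 24 h compound treatment, 7 concs 0.625–40.0 μM, n=3; MTT 2 h 37 °C; lysis buffer 25 mM HCl/2% AcOH/3% DMF/5% SDS pH 4.7; A570.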

K562 = test: MTT assay; type: cell-based; conditions: Homo sapiens; K562, 24 h of treatment
In short: as §1

HCC-1954 = test: MTT assay; type: cell-based; conditions: Homo sapiens, HCC1954; HCC-1954, 24 h of treatment
In short: as §1

HCC-2998 = conditions: for growth GP: HCC-2998, 10 μM, 48 h
Renal Cancer = Renal Cancer subpanel
LOX IMVI [2] = test: cells; conditions: Homo sapiens, 48 h; for CC50: read-out: LC50, LOX IMVI, 48 h
M14 = test: NCI-60 SRB screen; conditions: M14, 48 h; for CC50: read-out: LC50, M14, 48 h
SK-MEL-5 = conditions: for growth GP: SK-MEL-5, 10 μM; for growth GP / CC50: 48 h; for CC50: human
MALME-3M = test: NCI-60 SRB screen; conditions: 48 h
UACC-62 = test: NCI-60 SRB screen; conditions: for growth GP: UACC-62, 10 μM, 48 h
RPMI-8226 = conditions: RPMI-8226, 48 h
OVCAR-3 = test: cells; conditions: Homo sapiens, OVCAR-3, 48 h
CCRF-CEM = test: cells; conditions: Homo sapiens, 48 h
SN12C = conditions: 48 h
[3] = Homo sapiens, Malme-3M, read-out: LC50, MALME-3M, 48 h
[4] = Homo sapiens, UACC-62, 48 h, read-out: LC50, UACC-62, 48 h

SMILES: CCCCC(C(=O)O)N1C(=O)/C(=C/C=C/c2ccc([N+](=O)[O-])o2)SC1=S (stereo not drawn) [6b, 2-((Z)-5-((E)-3-(5-nitrofuran-2-yl)allylidene)-4-oxo-2-thioxothiazolidin-3-yl)hexanoic acid]
GI50 (PC-3): 3050 nM
GI50 (SNB-19; Homo sapiens): 2100 nM
CC50 (SNB-19; Homo sapiens): 13500 nM
TGI (SNB-19): 4880 nM
GI50 (SK-MEL-28): 1910 nM
CC50 (SK-MEL-28): 7290 nM
TGI (UACC-257; UACC-257, 48 h): 4310 nM
TGI (LOX IMVI [1]; LOX IMVI): 3340 nM
GI50 (SW-620; Homo sapiens): 1800 nM
TGI (SW-620): 3380 nM
GI50 (BT-549): 1490 nM
CC50 (BT-549): 6550 nM
GI50 (Leukemia): 2570 nM
CC50 (Leukemia): 98400 nM
TGI (COLO 205; COLO 205, 48 h): 3660 nM
GI50 (SNB-75; Homo sapiens): 1770 nM
CC50 (SNB-75; Homo sapiens): 8060 nM
TGI (SNB-75): 3770 nM
GI50 (RXF 393; Homo sapiens, RXF 393, 48 h): 1690 nM
TGI (RXF 393; RXF 393, 48 h): 3200 nM
GI50 (Ovarian cancer): 3320 nM
CC50 (Ovarian cancer): 25700 nM
GI50 (SF-268): 2150 nM
CC50 (SF-268): 16800 nM
GI50 (Breast cancer): 2030 nM
CC50 (Breast cancer): 26700 nM
TGI (ACHN): 3480 nM
GI50 (ACHN; Homo sapiens): 1880 nM
CC50 (ACHN; Homo sapiens): 6470 nM
IC50 (AGS): 3990 nM
IC50 (K562): 36200 nM
IC50 (HCC-1954): 4180 nM
TGI (HCC-2998; HCC-2998, 48 h): 3340 nM
MG_MID TGI (Renal Cancer): 5370 nM
GI50 (LOX IMVI [2]): 1760 nM
CC50 (LOX IMVI [2]): 6370 nM
GI50 (M14; Homo sapiens): 1830 nM
CC50 (M14; Homo sapiens): 7660 nM
TGI (M14): 3750 nM
growth GP (SK-MEL-5): -99.30%
TGI (SK-MEL-5; SK-MEL-5, 48 h): 2770 nM
GI50 (MALME-3M; Homo sapiens, Malme-3M): 2210 nM
CC50 (MALME-3M; [3]): 9020 nM
TGI (MALME-3M; MALME-3M): 4470 nM
GI50 (UACC-62; Homo sapiens, UACC-62, 48 h): 1380 nM
CC50 (UACC-62; [4]): 5610 nM
TGI (UACC-62; UACC-62, 48 h): 2780 nM
TGI (RPMI-8226): 6090 nM
GI50 (OVCAR-3): 2230 nM
GI50 (CCRF-CEM): 3100 nM
TGI (SN12C; SN12C): 4000 nM

IC50 (AGS): 12000 nM
IC50 (K562): > 40000 nM
IC50 (HCC-1954): 12500 nM
SMILES: CC(C(=O)O)N1C(=O)/C(=C/C=C/c2ccc([N+](=O)[O-])o2)SC1=S (stereo not drawn) [2b, 2-((Z)-5-((E)-3-(5-Nitrofuran-2-yl)allylidene)-4-oxo-2-thioxothiazolidin-3-yl)propanoic acid]

SMILES: O=C(O)CCCN1C(=O)/C(=C/C=C/c2ccc([N+](=O)[O-])o2)SC1=S [13b, 4-((Z)-5-((E)-3-(5-Nitrofuran-2-yl)allylidene)-4-oxo-2-thioxothiazolidin-3-yl)butanoic acid]
GI50 (PC-3): 620 nM
CC50 (SNB-19; Homo sapiens): 6050 nM
growth GP (SNB-19; SNB-19, 10 μM, 48 h): -96.10%
TGI (SNB-19): 3160 nM and 2100 nM
TGI (UACC-257; UACC-257, 48 h): 3150 nM and 1730 nM
CC50 (UACC-257): 4660 nM
growth GP (LOX IMVI [1]; LOX IMVI): -96.12%
TGI (LOX IMVI [1]; LOX IMVI): 420 nM and 390 nM
CC50 (LOX IMVI [1]): 810 nM
GI50 (SW-620; Homo sapiens): 240 nM
GI50 (SW-620): 280 nM
TGI (SW-620): 540 nM and 830 nM
GI50 (Leukemia): 9340 nM
CC50 (Leukemia): 87000 nM
GI50 (SNB-75; Homo sapiens): 380 nM
CC50 (SNB-75; Homo sapiens): 8730 nM
GI50 (SNB-75): 320 nM
TGI (SNB-75): 1990 nM and 1370 nM
growth GP (RXF 393; RXF 393, 10 μM, 48 h): -97.90%
GI50 (Ovarian cancer): 960 nM
CC50 (Ovarian cancer): 13200 nM
GI50 (Breast cancer): 530 nM
CC50 (Breast cancer): 36000 nM
growth GP (ACHN): -100.00%
TGI (ACHN): 2210 nM and 1350 nM
CC50 (ACHN; Homo sapiens): 4700 nM
IC50 (AGS): 2100 nM
IC50 (K562): 3570 nM
IC50 (HCC-1954): 3120 nM
growth GP (HCC-2998): -95.27%
MG_MID TGI (Renal Cancer): 2600 nM
GI50 (LOX IMVI [2]): 190 nM
CC50 (LOX IMVI [2]): 920 nM
growth GP (SK-MEL-5): -98.67%
GI50 (SK-MEL-5; SK-MEL-5, 48 h): 1210 nM
TGI (SK-MEL-5; SK-MEL-5, 48 h): 1970 nM and 2680 nM
CC50 (SK-MEL-5): 5960 nM
GI50 (MALME-3M; Homo sapiens, Malme-3M): 240 nM
GI50 (MALME-3M; MALME-3M): 150 nM
TGI (MALME-3M; MALME-3M): 600 nM and 350 nM
GI50 (UACC-62; Homo sapiens, UACC-62, 48 h): 310 nM
growth GP (UACC-62): -95.10%
GI50 (UACC-62; UACC-62, 48 h): 180 nM
TGI (RPMI-8226): 1580 nM
GI50 (OVCAR-3): 770 nM
GI50 (CCRF-CEM): 190 nM
growth GP (SN12C; SN12C, 10 μM): -96.81%
GI50 (SN12C; SN12C): 170 nM

SMILES: O=C(O)CCCCCN1C(=O)/C(=C/C=C/c2ccc([N+](=O)[O-])o2)SC1=S [14b, 6-((Z)-5-((E)-3-(5-nitrofuran-2-yl)allylidene)-4-oxo-2-thioxothiazolidin-3-yl)hexanoic acid]
GI50 (SNB-19; Homo sapiens): 1760 nM
CC50 (SNB-19; Homo sapiens): 7430 nM
GI50 (SNB-19): 1450 nM
TGI (SNB-19): 3620 nM and 3110 nM
GI50 (SK-MEL-28): 1640 nM
CC50 (SK-MEL-28): 5900 nM
GI50 (UACC-257; UACC-257, 48 h): 1400 nM
TGI (UACC-257; UACC-257, 48 h): 3160 nM and 3080 nM
CC50 (UACC-257): 6810 nM
growth GP (LOX IMVI [1]; LOX IMVI): -95.58%
GI50 (LOX IMVI [1]; LOX IMVI): 190 nM
TGI (LOX IMVI [1]; LOX IMVI): 420 nM and 390 nM
CC50 (LOX IMVI [1]): 780 nM
GI50 (SW-620; Homo sapiens): 230 nM
GI50 (SW-620): 240 nM
TGI (SW-620): 570 nM and 610 nM
CC50 (BT-549): 5070 nM
GI50 (Leukemia): 410 nM
CC50 (Leukemia): 64900 nM
GI50 (COLO 205; COLO 205, 48 h): 970 nM
TGI (COLO 205; COLO 205, 48 h): 3080 nM and 2350 nM
CC50 (COLO 205; human, 48 h): 5610 nM
CC50 (SNB-75; Homo sapiens): 5680 nM
TGI (SNB-75): 2610 nM and 1430 nM
GI50 (Ovarian cancer): 1110 nM
CC50 (Ovarian cancer): 15600 nM
GI50 (SF-268): 1260 nM
CC50 (SF-268): 5820 nM
GI50 (Breast cancer): 650 nM
CC50 (Breast cancer): 36500 nM
growth GP (ACHN): -99.76%
GI50 (ACHN): 1210 nM
TGI (ACHN): 2820 nM and 2460 nM
GI50 (ACHN; Homo sapiens): 1500 nM
CC50 (ACHN; Homo sapiens): 5310 nM
IC50 (AGS): 2570 nM
IC50 (K562): 1530 nM
IC50 (HCC-1954): 3300 nM
growth GP (HCC-2998): -95.72%
GI50 (HCC-2998; HCC-2998, 48 h): 1600 nM
TGI (HCC-2998; HCC-2998, 48 h): 3320 nM and 2980 nM
MG_MID TGI (Renal Cancer): 4630 nM
GI50 (LOX IMVI [2]): 200 nM
CC50 (LOX IMVI [2]): 880 nM
CC50 (M14; Homo sapiens): 5560 nM
TGI (SK-MEL-5; SK-MEL-5, 48 h): 1980 nM and 3140 nM
CC50 (SK-MEL-5): 6380 nM
GI50 (MALME-3M; Homo sapiens, Malme-3M): 280 nM
CC50 (MALME-3M; [3]): 2850 nM
GI50 (MALME-3M; MALME-3M): 240 nM
TGI (MALME-3M; MALME-3M): 760 nM and 720 nM
CC50 (MALME-3M; read-out: LC50, MALME-3M): 2720 nM
GI50 (UACC-62; Homo sapiens, UACC-62, 48 h): 370 nM
CC50 (UACC-62; [4]): 4080 nM
growth GP (UACC-62): -96.88%
GI50 (UACC-62; UACC-62, 48 h): 250 nM
CC50 (UACC-62; read-out: LC50, UACC-62, 48 h): 2820 nM
TGI (RPMI-8226): 1320 nM
GI50 (OVCAR-3): 1120 nM
GI50 (CCRF-CEM): 180 nM
GI50 (SN12C; SN12C): 260 nM
TGI (SN12C; SN12C): 1360 nM and 860 nM
CC50 (SN12C; human): 3240 nM

From publication PMC12655351, “Synthesis and Anticancer Activity Evaluation of New 5-((5-Nitrofuran-2-yl)allylidene)-2-thioxo-4-thiazolidinones” (Pharmaceuticals, 2025)
